Test results: patent US6469056B1, “Pharmaceutically active compounds, their preparation and use as ECE-inhibitors” (Abbott Laboratories, priority 1997, dated 2002)

Assays:
Assay type in all cases: biochemical
[1] = target: T1, recombinant human ECE from CHO cells (Homo sapiens, UniProt P42892); test: ECE inhibitor test, IC50 determination (Big ET1 cleavage, HPLC); conditions: Big ET1 substrate, 1 hour at 37° C., pH 7.2
T1 construct: made in house; host or cells: CHO cells
T1 sequence (P42892 1-770): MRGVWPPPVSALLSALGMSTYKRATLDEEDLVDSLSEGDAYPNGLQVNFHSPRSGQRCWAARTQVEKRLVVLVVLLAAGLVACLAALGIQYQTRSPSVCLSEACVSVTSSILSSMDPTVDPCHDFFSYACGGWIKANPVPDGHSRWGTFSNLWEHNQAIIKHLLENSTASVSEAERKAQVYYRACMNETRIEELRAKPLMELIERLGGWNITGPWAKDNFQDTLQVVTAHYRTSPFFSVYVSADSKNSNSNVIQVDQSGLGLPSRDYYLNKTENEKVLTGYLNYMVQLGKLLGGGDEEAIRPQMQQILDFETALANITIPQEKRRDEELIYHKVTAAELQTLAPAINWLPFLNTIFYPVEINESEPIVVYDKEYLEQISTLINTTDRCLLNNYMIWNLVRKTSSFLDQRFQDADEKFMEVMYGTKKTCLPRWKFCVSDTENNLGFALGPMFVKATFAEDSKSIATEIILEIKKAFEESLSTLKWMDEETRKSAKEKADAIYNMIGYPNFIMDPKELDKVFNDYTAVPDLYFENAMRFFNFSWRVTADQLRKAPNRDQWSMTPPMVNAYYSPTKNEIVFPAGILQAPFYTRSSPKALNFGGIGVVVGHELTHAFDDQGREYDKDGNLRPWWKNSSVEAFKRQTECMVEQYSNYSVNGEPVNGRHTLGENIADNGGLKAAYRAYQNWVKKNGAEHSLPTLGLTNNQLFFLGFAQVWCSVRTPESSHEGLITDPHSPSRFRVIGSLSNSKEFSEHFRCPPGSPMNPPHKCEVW
Method: ECE Inhibitor Tests, IC50 Determinations
Inhibitors of endothelin converting enzyme (ECE) were tested using recombinant human ECE from CHO cells as described in Schmidt et al. (FEBS Letters 356, 1994: 238-243).
The enzyme preparations employed were, after membrane isolation and solubilization, further purified by Mono-Q chromatography and WGA lectin chromatography. The preparations obtained in this way contained no interfering foreign protease activities and had specific activities in the range 1-20 mU/mg. 5 μl of this enzyme solution were preincubated with 495 μl of test buffer (100 mM Pi, 500 mM NaCl, 0,1 mg/ml BSA pH 7.2) and with in each case 5 μl of appropriately concentrated solutions (10^−3 M, 10^−4 M, 10^−5 M etc.) of the inhibitors in the test buffer for 10 minutes. 50 μl aliquots were mixed with 5 μl of 2×10^−3 M Big ET1 solution (=Big Endothelin1) in 0.02% acetic acid. The mixtures were stopped after 1 hour at 37° C. by adding 150 μl of 0.5% TFA (=trifluoroacetic acid) in water, and centrifuged at 10000×g for 5 minutes, and the enzyme reaction was determined by measuring the endothelin formed by means of reversed phase HPLC as described in Takada et al. (Biochem. Biophys. Res. Comm. 176, 1991, 860), K. Ohnaka et al. (Biochem. Biophys. Res. Commun. 168, 1990, 1128). An inhibition plot was produced from the values of the inhibition at the various inhibitor concentrations, and the half-maximum inhibition (IC50) was read off as a measure of the strength of the inhibitory effect.

[2] = target: ACE (angiotensin converting enzyme) (Homo sapiens, UniProt P12821); test: ACE inhibition
ACE (angiotensin converting enzyme), sequence (P12821 30-1306, species assumed): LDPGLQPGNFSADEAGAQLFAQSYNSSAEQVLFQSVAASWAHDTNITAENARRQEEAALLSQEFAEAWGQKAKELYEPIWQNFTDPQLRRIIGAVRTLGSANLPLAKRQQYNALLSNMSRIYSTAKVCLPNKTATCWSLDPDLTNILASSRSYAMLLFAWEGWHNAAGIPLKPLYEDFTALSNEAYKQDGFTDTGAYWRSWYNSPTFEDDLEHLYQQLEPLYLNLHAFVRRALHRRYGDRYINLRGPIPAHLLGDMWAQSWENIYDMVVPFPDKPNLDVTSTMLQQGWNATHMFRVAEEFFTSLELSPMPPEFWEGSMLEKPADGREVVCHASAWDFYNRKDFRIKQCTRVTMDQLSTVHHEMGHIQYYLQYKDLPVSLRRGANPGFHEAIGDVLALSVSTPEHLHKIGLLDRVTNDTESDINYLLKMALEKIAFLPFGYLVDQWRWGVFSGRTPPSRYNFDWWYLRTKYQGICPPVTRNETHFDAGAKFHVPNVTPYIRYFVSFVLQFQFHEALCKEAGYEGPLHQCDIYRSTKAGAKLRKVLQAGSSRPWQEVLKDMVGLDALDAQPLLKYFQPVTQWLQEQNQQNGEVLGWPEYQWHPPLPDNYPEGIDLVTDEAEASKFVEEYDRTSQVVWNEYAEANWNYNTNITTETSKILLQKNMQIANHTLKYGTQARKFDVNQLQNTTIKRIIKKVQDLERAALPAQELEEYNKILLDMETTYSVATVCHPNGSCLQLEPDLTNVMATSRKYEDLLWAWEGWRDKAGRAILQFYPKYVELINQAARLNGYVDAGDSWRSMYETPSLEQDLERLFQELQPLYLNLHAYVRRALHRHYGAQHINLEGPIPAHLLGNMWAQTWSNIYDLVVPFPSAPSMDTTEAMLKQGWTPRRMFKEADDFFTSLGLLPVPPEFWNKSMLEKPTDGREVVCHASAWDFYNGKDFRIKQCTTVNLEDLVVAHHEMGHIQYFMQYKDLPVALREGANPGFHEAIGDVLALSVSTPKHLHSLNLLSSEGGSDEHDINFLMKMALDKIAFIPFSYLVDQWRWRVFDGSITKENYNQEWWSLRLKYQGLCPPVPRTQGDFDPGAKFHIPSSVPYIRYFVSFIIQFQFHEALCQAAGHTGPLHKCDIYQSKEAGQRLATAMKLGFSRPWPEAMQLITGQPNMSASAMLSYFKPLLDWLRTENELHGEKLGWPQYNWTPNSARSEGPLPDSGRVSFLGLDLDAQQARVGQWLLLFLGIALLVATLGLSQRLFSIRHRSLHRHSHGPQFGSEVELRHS

[3] = target: NEP 24.11 (neutral endopeptidase 24.11) (Homo sapiens, UniProt P08473); test: NEP 24.11 inhibition
NEP 24.11 (neutral endopeptidase 24.11), sequence (P08473 whole entry, species assumed): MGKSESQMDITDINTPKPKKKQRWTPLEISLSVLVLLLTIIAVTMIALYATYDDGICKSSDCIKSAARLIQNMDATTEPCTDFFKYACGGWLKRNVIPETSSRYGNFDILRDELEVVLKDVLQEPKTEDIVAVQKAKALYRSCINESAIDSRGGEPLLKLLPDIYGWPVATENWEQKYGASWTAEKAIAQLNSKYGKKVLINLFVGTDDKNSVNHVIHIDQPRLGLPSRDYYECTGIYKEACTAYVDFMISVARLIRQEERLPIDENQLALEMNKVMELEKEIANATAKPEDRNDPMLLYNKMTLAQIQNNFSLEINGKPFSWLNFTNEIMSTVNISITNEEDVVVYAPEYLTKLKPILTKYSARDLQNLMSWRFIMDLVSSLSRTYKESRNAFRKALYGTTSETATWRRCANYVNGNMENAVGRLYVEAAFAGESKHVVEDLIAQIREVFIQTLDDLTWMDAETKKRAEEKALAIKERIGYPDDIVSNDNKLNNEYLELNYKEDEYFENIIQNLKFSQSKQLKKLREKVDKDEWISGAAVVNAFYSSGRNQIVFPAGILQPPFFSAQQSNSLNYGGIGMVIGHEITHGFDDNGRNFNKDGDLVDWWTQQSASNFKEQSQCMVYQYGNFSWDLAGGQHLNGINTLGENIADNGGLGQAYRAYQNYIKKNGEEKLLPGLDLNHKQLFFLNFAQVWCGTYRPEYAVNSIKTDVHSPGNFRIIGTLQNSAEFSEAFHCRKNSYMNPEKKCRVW

Question: Which results are given for `CC(C)(C)SSC[C@@H](CN(C(=O)c1ccc(Cl)s1)[C@@H](Cc1ccccc1)C(=O)O)NC(=O)OCC1c2ccccc2-c2ccccc21` [Compound 1b]?
Answer: IC50 [1]: 3 µM; IC50 [2]: > 100 µM; IC50 [3]: > 100 µM

Question: What does the source list for `O=C(N[C@@H](Cc1ccccc1)CN(C(=O)c1ccc(Cl)s1)[C@@H](Cc1ccccc1)C(=O)O)OCC1c2ccccc2-c2ccccc21` [Compound 1a]?
Answer: IC50 [1]: 2 µM; IC50 [2]: > 100 µM; IC50 [3]: > 100 µM

Question: Which IC50 [1] does the source give for `O=C(N[C@@H](Cc1ccccc1)CN(C(=O)c1ccc2ccccc2c1)[C@@H](Cc1ccccc1)C(=O)O)OCC1c2ccccc2-c2ccccc21` [Compound 1e] here?
Answer: Its IC50 is 4 µM.

Question: What about the IC50 [2] of the same compound?
Answer: Its IC50 is > 100 µM.

Question: What about the IC50 [3] of the same compound?
Answer: Its IC50 is > 100 µM.
